ChEMBL document CHEMBL1201862, “PubChem BioAssay data set” (2004)
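Each compound was tested at five concentrations against cells in 96-well plates for 48 hours. GI50 is the concentration that inhibits growth by half.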 Calls of active or inactive are those of the source. Cut-off read from the data, not from the text of the source: active = GI50 up to about 1.1 µM and inactive = higher.

How the values were obtained:
Test in all cases: inhibition of tumour cell growth, NCI panel, 48 h
A498 = tested on: A498
A549 = tested on: A549
ACHN = tested on: ACHN
CCRF-CEM = tested on: CCRF-CEM
DMS-273 = tested on: DMS-273
EKVX = tested on: EKVX
HL-60 = tested on: HL-60
HOP-62 = tested on: HOP-62
HOP-92 = tested on: HOP-92
HT-29 = tested on: HT-29
IGROV-1 = tested on: IGROV-1
KM12 = tested on: KM12
M14 = tested on: M14
M19-MEL = tested on: M19-MEL
MOLT-4 = tested on: MOLT-4
NCI-H23 = tested on: NCI-H23
NCI-H460 = tested on: NCI-H460
NCI-H522 = tested on: NCI-H522
OVCAR-5 = tested on: OVCAR-5
OVCAR-8 = tested on: OVCAR-8
RXF 393 = tested on: RXF 393
SF-268 = tested on: SF-268
SF-295 = tested on: SF-295
SK-MEL-28 = tested on: SK-MEL-28
SK-OV-3 = tested on: SK-OV-3
SNB-19 = tested on: SNB-19
SNB-78 = tested on: SNB-78
SR = tested on: SR
TK-10 = tested on: TK-10
U-251 = tested on: U-251
UACC-257 = tested on: UACC-257
UACC-62 = tested on: UACC-62
UO-31 = tested on: UO-31
786-0 = tested on: 786-0
BT-549 = tested on: BT-549
CAKI-1 = tested on: CAKI-1
COLO 205 = tested on: COLO 205
DU-145 = tested on: DU-145
HCC 2998 = tested on: HCC 2998
HCT-116 = tested on: HCT-116
HCT-15 = tested on: HCT-15
Hs-578T = tested on: Hs-578T
K562 = tested on: K562
LOX IMVI = tested on: LOX IMVI
MCF7 = tested on: MCF7
MDA-MB-231 = tested on: MDA-MB-231
MDA-MB-435 = tested on: MDA-MB-435
MDA-N = tested on: MDA-N
Malme-3M = tested on: Malme-3M
NCI-H226 = tested on: NCI-H226
NCI/ADR-RES = tested on: NCI/ADR-RES
OVCAR-3 = tested on: OVCAR-3
OVCAR-4 = tested on: OVCAR-4
PC-3 = tested on: PC-3
RPMI-8226 = tested on: RPMI-8226
SF-539 = tested on: SF-539
SK-MEL-2 = tested on: SK-MEL-2
SK-MEL-5 = tested on: SK-MEL-5
SN12C = tested on: SN12C
SNB-75 = tested on: SNB-75
SW-620 = tested on: SW-620
T47D = tested on: T47D

Measured: GI50

CC1(C(=O)Nc2ccc3ccccc3c2)CC2(C)CC(C)(C1)C(O)NC2=O (centres undefined)
inactive: A498 > 100 µM | A549 > 100 µM | ACHN > 100 µM | CCRF-CEM > 100 µM | DMS-273 > 100 µM | EKVX > 100 µM | HL-60 > 100 µM | HOP-62 > 100 µM | HOP-92 > 100 µM | HT-29 > 100 µM | IGROV-1 > 100 µM | KM12 > 100 µM | M14 > 100 µM | M19-MEL > 100 µM | MOLT-4 > 100 µM | NCI-H23 > 100 µM | NCI-H460 > 100 µM | NCI-H522 > 100 µM | OVCAR-5 > 100 µM | OVCAR-8 86.9 µM | RXF 393 > 100 µM | SF-268 > 100 µM | SF-295 > 100 µM | SK-MEL-28 > 100 µM | SK-OV-3 > 100 µM | SNB-19 > 100 µM | SNB-78 > 100 µM | SR > 100 µM | TK-10 > 100 µM | U-251 > 100 µM | UACC-257 81.5 µM | UACC-62 > 100 µM | UO-31 > 100 µM

Cc1cc2nc(C=C(C(F)(F)F)C(F)(F)F)sc2cc1C
active: 786-0 0.316 µM | BT-549 0.855 µM | CCRF-CEM 0.0333 µM | HCT-116 1.1 µM | HL-60 0.482 µM | HT-29 0.929 µM | K562 0.0693 µM | LOX IMVI 0.294 µM | M14 0.782 µM | MOLT-4 0.11 µM | NCI-H522 0.31 µM | NCI/ADR-RES 0.55 µM | OVCAR-8 0.908 µM | RPMI-8226 0.055 µM | SN12C 0.501 µM | SR 0.0923 µM | SW-620 0.957 µM | T47D 0.142 µM | U-251 0.871 µM
1.71 µM: HCT-15
inactive: A498 4.2 µM | A549 4.02 µM | ACHN 2.99 µM | CAKI-1 2.64 µM | COLO 205 1.4 µM | DU-145 3.37 µM | EKVX 2.15 µM | HCC 2998 3.18 µM | HOP-62 3.05 µM | HOP-92 4.66 µM | Hs-578T 1.87 µM | IGROV-1 2.21 µM | KM12 1.7 µM | MCF7 2.63 µM | MDA-MB-231 2.82 µM | MDA-MB-435 1.21 µM | MDA-N 1.44 µM | Malme-3M 1.44 µM | NCI-H226 1.21 µM | NCI-H23 1.46 µM | NCI-H460 3.58 µM | OVCAR-3 1.16 µM | OVCAR-4 2.99 µM | OVCAR-5 2.59 µM | PC-3 1.65 µM | RXF 393 1.16 µM | SF-268 3.05 µM | SF-295 3.15 µM | SF-539 1.54 µM | SK-MEL-28 3.01 µM | SK-MEL-2 1.73 µM | SK-MEL-5 2.49 µM | SK-OV-3 7.62 µM | SNB-19 3.44 µM | SNB-75 1.16 µM | TK-10 2.34 µM | UACC-257 4.55 µM | UACC-62 1.85 µM | UO-31 2.53 µM

COc1cc2c(NCCCCCCO[N+](=O)[O-])ncnc2c(OC)c1OC
24 µM: HCT-15
inactive: 786-0 26 µM | A498 18.1 µM | A549 28.7 µM | ACHN 32.9 µM | BT-549 23.1 µM | CAKI-1 19.1 µM | CCRF-CEM 19.8 µM | COLO 205 21.4 µM | DU-145 24.5 µM | EKVX 22.5 µM | HCT-116 20.6 µM | HL-60 23.9 µM | HOP-62 26.6 µM | HOP-92 14.6 µM | HT-29 36.1 µM | Hs-578T 29.2 µM | IGROV-1 23.1 µM | K562 29.2 µM | KM12 16.2 µM | LOX IMVI 20.2 µM | M14 16.9 µM | MCF7 17.6 µM | MDA-MB-231 14.2 µM | MDA-MB-435 18.1 µM | MDA-N 20.6 µM | MOLT-4 16.5 µM | Malme-3M 13.1 µM | NCI-H226 16 µM | NCI-H23 19.1 µM | NCI-H460 22.3 µM | NCI-H522 19.7 µM | NCI/ADR-RES 21.7 µM | OVCAR-3 23.1 µM | OVCAR-4 50.4 µM | OVCAR-5 30.2 µM | OVCAR-8 23.9 µM | PC-3 20.7 µM | RPMI-8226 10.2 µM | RXF 393 17.9 µM | SF-268 25.5 µM | SF-295 21.1 µM | SF-539 24.7 µM | SK-MEL-28 45.1 µM | SK-MEL-2 21.6 µM | SK-MEL-5 11.9 µM | SK-OV-3 49.3 µM | SN12C 28.7 µM | SNB-19 66.5 µM | SNB-75 > 69.5 µM | SR 9.75 µM | SW-620 26.2 µM | T47D 23.8 µM | TK-10 20.9 µM | U-251 35.2 µM | UACC-257 17.8 µM | UACC-62 18.2 µM | UO-31 7.93 µM
active: HCC 2998 0.399 µM

COc1ccc2ccccc2c1/C=C/C(=O)c1ccccc1
inactive: 786-0 2.87 µM | A498 3.56 µM | A549 2.65 µM | ACHN 3.33 µM | BT-549 2.96 µM | CAKI-1 4.8 µM | CCRF-CEM 1.65 µM | COLO 205 3.25 µM | DU-145 2.4 µM | EKVX 3.61 µM | HCC 2998 1.66 µM | HCT-116 2.99 µM | HL-60 1.7 µM | HOP-62 2.68 µM | HOP-92 1.69 µM | HT-29 3.43 µM | Hs-578T 2.92 µM | IGROV-1 4.03 µM | K562 1.93 µM | KM12 2.51 µM | LOX IMVI 2.77 µM | M14 3.13 µM | MCF7 3.25 µM | MDA-MB-231 2.66 µM | MDA-MB-435 2.53 µM | MDA-N 2.94 µM | MOLT-4 2.84 µM | Malme-3M 9.33 µM | NCI-H226 3.1 µM | NCI-H23 2.6 µM | NCI-H460 1.79 µM | NCI-H522 2.46 µM | NCI/ADR-RES 3.01 µM | OVCAR-3 2.32 µM | OVCAR-4 2.74 µM | OVCAR-5 7.57 µM | OVCAR-8 2.33 µM | PC-3 4 µM | RPMI-8226 1.44 µM | RXF 393 1.33 µM | SF-268 2.7 µM | SF-295 3.75 µM | SF-539 2.74 µM | SK-MEL-28 5.96 µM | SK-MEL-2 1.56 µM | SK-MEL-5 4.19 µM | SK-OV-3 3.62 µM | SN12C 2.88 µM | SNB-19 3.24 µM | SW-620 2.54 µM | T47D 2.43 µM | TK-10 2.59 µM | U-251 1.95 µM | UACC-257 4.05 µM | UACC-62 2.89 µM | UO-31 2.82 µM
2.9 µM: HCT-15
active: SNB-75 1.08 µM | SR 1.06 µM

NC(=O)c1ccc(N)nc1 [6-AMINONICOTINAMIDE]
active: MCF7 0.389 µM | RXF 393 0.138 µM | SK-MEL-5 0.759 µM | UACC-257 0.986 µM
inactive: 786-0 3.54 µM | A498 14.9 µM | A549 54.5 µM | ACHN 54.3 µM | BT-549 14.1 µM | CAKI-1 17.6 µM | CCRF-CEM 12.3 µM | COLO 205 14.2 µM | DU-145 2.3 µM | EKVX 21.7 µM | HCC 2998 31.5 µM | HCT-116 > 187 µM | HL-60 53.3 µM | HOP-62 12 µM | HOP-92 213 µM | HT-29 3.93 µM | Hs-578T 6.17 µM | IGROV-1 108 µM | K562 16.7 µM | KM12 48.1 µM | LOX IMVI 3.35 µM | M14 6.24 µM | MDA-MB-231 39.4 µM | MDA-MB-435 4.66 µM | MDA-N 14.3 µM | MOLT-4 38.6 µM | Malme-3M 33.2 µM | NCI-H226 35.7 µM | NCI-H23 9.98 µM | NCI-H460 5.16 µM | NCI-H522 99.8 µM | NCI/ADR-RES > 245 µM | OVCAR-3 67.8 µM | OVCAR-4 7.01 µM | OVCAR-5 > 322 µM | OVCAR-8 17.6 µM | PC-3 29.7 µM | RPMI-8226 9.75 µM | SF-268 19.1 µM | SF-295 5.07 µM | SF-539 8.43 µM | SK-MEL-28 3.37 µM | SK-MEL-2 124 µM | SK-OV-3 > 400 µM | SN12C 15.9 µM | SNB-19 14.7 µM | SNB-75 15.6 µM | SR 14.3 µM | SW-620 82 µM | T47D > 255 µM | TK-10 > 400 µM | U-251 1.85 µM | UACC-62 16.1 µM | UO-31 29.4 µM
17.5 µM: HCT-15
